# Experimental data published in PubChem BioAssay (NCI).
#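 Each compound was tested at five concentrations against cells in 96-well plates for 48 hours. The concentration for 50% growth inhibition is given as GI50. At the TGI there is no net growth.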
# How the values were obtained:
# Assay in all cases: NCI-60 cell line screen, 48 h
# BT-549 breast = system: BT-549 breast
# HCT-15 colon = system: HCT-15 colon
# HOP-92 NSCLC = system: HOP-92 NSCLC
# LOX IMVI melanoma = system: LOX IMVI melanoma
# MDA-N = system: MDA-N
# NCI-H460 lung = system: NCI-H460 lung
# OVCAR-8 ovarian = system: OVCAR-8 ovarian
# RXF 393 renal = system: RXF 393 renal
# SF-268 CNS = system: SF-268 CNS
# HL-60(TB) leukemia = system: HL-60(TB) leukemia
Compound,TGI (BT-549 breast),TGI (HCT-15 colon),TGI (HOP-92 NSCLC),TGI (LOX IMVI melanoma),TGI (MDA-N),TGI (NCI-H460 lung),TGI (OVCAR-8 ovarian),TGI (RXF 393 renal),TGI (SF-268 CNS),TGI (HL-60(TB) leukemia),GI50 (HL-60(TB) leukemia),GI50 (BT-549 breast),GI50 (HCT-15 colon),GI50 (NCI-H460 lung),GI50 (OVCAR-8 ovarian),GI50 (RXF 393 renal),GI50 (SF-268 CNS)
CN(C)CC(C)(C)CN1c2ccccc2Sc2ccccc21,27.6 µM,> 100 µM,24.1 µM,26.4 µM,28.2 µM,26.3 µM,28.6 µM,13 µM,27.5 µM,–,–,–,–,–,–,–,–
C=CCOCn1cnc2c(=O)[nH]c(N)nc21,–,> 100 µM,–,> 100 µM,> 100 µM,> 100 µM,> 100 µM,–,> 100 µM,> 100 µM,–,–,–,–,–,–,–
NC(CSCSCC(N)C(=O)O)C(=O)O (stereo not drawn),–,> 225 µM,> 225 µM,> 225 µM,–,> 225 µM,> 22.5 µM,> 225 µM,> 225 µM,> 225 µM,–,–,–,–,–,–,–
C/C(CCN(C)C)=N\OC(=O)c1ccccc1,–,–,> 100 µM,> 100 µM,–,> 100 µM,> 100 µM,> 100 µM,> 100 µM,> 100 µM,–,–,–,–,–,–,–
COC(=O)[C@H](Cc1ccccc1)NC(=O)N(CCNC(=O)OC(C)(C)C)c1ccccc1,> 100 µM,> 100 µM,–,> 100 µM,> 100 µM,> 100 µM,> 100 µM,> 100 µM,> 100 µM,> 100 µM,–,–,–,–,–,–,–
Cn1c(=O)n(C2(C)CSC2)c2ccccc21,–,> 100 µM,> 100 µM,> 100 µM,–,> 100 µM,> 100 µM,> 100 µM,> 100 µM,> 100 µM,–,–,–,–,–,–,–
OCC1OC(n2cnc3c(Cl)nc(Nc4ccc(Cl)c(Cl)c4)nc32)CC1O (stereo not drawn),22.3 µM,21.7 µM,16.3 µM,16 µM,–,16.8 µM,22.6 µM,19.5 µM,28.6 µM,16.4 µM,–,–,–,–,–,–,–
CCOC(=O)CC1Nc2ccccc2C12CCc1c([nH]c3ccccc13)C2C(=O)OCC (stereo not drawn),> 100 µM,> 100 µM,–,> 100 µM,> 100 µM,> 100 µM,> 100 µM,> 100 µM,> 100 µM,53.8 µM,–,–,–,–,–,–,–
C/C(=N\O)c1cccc(Nc2c3ccccc3nc3occc23)c1,24.1 µM,> 100 µM,47.9 µM,> 100 µM,> 100 µM,> 100 µM,83 µM,–,56.9 µM,> 100 µM,–,–,–,–,–,–,–
C[C@@H](c1ccccc1)N1CO[C@@]2(C#Cc3ccc4c(c3)OCO4)CCC[C@@H]12,–,27.4 µM,19.7 µM,25.2 µM,37.7 µM,26 µM,27 µM,24.4 µM,–,> 100 µM,–,–,–,–,–,–,–
CC(C)[Si](Oc1ccc(CC2N(C(=O)c3ccc([N+](=O)[O-])cc3)C(CCc3ccccc3)CC2(C)C=O)cc1)(C(C)C)C(C)C (stereo not drawn),> 100 µM,> 100 µM,82.8 µM,> 100 µM,–,–,42.5 µM,28.2 µM,54.8 µM,–,–,–,–,–,–,–,–
CCCCCCc1cc2cc(C(=O)Nc3cccc(F)c3)c(=N)oc2cc1O,6.19 µM,5.87 µM,–,3.41 µM,11.8 µM,> 100 µM,3.56 µM,–,10.6 µM,5.33 µM,–,–,–,–,–,–,–
CCOc1cc2c(cc1O)C(=O)C[C@@H]1[C@@H]2CC[C@]2(C)[C@@H](O)CC[C@@H]12,28.9 µM,29.3 µM,> 100 µM,> 100 µM,0.106 µM,12.4 µM,27.1 µM,> 100 µM,> 95.4 µM,–,–,–,–,–,–,–,–
COC(=O)c1c2c(cc3c1CC1(C3)Cc3cc4c(c(C(=O)OC)c3C1)CCC4)CCC2,–,–,> 100 µM,> 100 µM,> 100 µM,–,> 100 µM,> 100 µM,–,> 100 µM,–,–,–,–,–,–,–
O=C(Nc1ccc(F)cc1)c1cc2c(cc1Cl)Sc1nccn1S2(=O)=O,–,> 100 µM,–,> 100 µM,> 100 µM,> 100 µM,> 100 µM,> 100 µM,> 100 µM,–,–,–,–,–,–,–,–
NC1NCCC(=O)N1CCc1c[nH]c2ccccc12 (stereo not drawn),–,65 µM,69.5 µM,30.2 µM,34.3 µM,31.2 µM,89.1 µM,43.5 µM,46.4 µM,44.7 µM,–,–,–,–,–,–,–
CC(C)(C)CI,–,> 100 µM,61.4 µM,33.4 µM,–,81.2 µM,> 10 µM,33.7 µM,> 100 µM,50.4 µM,–,–,–,–,–,–,–
Cc1cc(N=Cc2c(CO)cnc(C)c2O)c(N=Cc2c(CO)cnc(C)c2O)cc1C,–,> 100 µM,–,> 100 µM,> 100 µM,> 100 µM,> 100 µM,> 100 µM,> 100 µM,> 100 µM,0.0212 µM,–,–,–,–,–,–
CN(/N=C/C=N/N(C)C1=NCCN1)C1=NCCN1,> 100 µM,> 100 µM,> 100 µM,> 100 µM,> 100 µM,> 100 µM,> 100 µM,–,> 100 µM,–,–,–,–,–,–,–,–
O[C@@]12Cc3c([nH]c4ccccc34)[C@@H]3Oc4c(-c5ccccc5)ccc5c4[C@@]31CCN(CC1CC1)[C@@H]2C5,23.4 µM,4.06 µM,21.4 µM,3.52 µM,3.23 µM,3.36 µM,5.01 µM,–,14.7 µM,4.48 µM,–,–,–,–,–,–,–
Cc1ccc(S(=O)(=O)Nn2c(S)c(C#N)c(-c3ccc(Cl)cc3)c(C#N)c2=O)cc1,41.9 µM,71.1 µM,> 100 µM,> 100 µM,–,31.4 µM,50.8 µM,> 100 µM,–,65.8 µM,–,–,–,–,–,–,–
CC(C)CC1N=C(OCc2ccccc2)OC1=O (stereo not drawn),> 100 µM,> 100 µM,> 100 µM,> 100 µM,> 100 µM,> 100 µM,> 100 µM,> 100 µM,> 100 µM,–,–,–,–,–,–,–,–
CCCCCCCCCCCCCCCCCCOc1ccccc1COP(=O)(O)OOCC[N+](C)(C)C,4.26 µM,7.87 µM,–,–,–,12.5 µM,9.22 µM,1.96 µM,7.19 µM,2.19 µM,0.846 µM,1.32 µM,1.64 µM,2.81 µM,1.41 µM,0.911 µM,1.55 µM
CC1(C)[C@H]2Cc3cc4nc5ccccn5c4cc3[C@@H]1C2,41.5 µM,35 µM,29.3 µM,39.4 µM,33.4 µM,38.8 µM,30.5 µM,–,34.5 µM,57.2 µM,–,–,–,–,–,–,–
